Reference: patent publication US9410197B2, “Compound for sequencing by synthesis” (Roche Diagnostics Operations, Inc., priority 2013, dated 2016)
Several values for one entry are separate records, joined by “and”; a condition that tells them apart may be missing. Identical values can stand only once.

How the values were obtained:
[1] = molecular target: T1, Therminator II DNA polymerase (Thermococcus sp., UniProt Q56366, A485L/D141A/E143A/Y409V); type: biochemical
T1 construct: purchased New England Biolabs
T1 sequence (Q56366 1-775 D141A/E143A/Y409V/A485L): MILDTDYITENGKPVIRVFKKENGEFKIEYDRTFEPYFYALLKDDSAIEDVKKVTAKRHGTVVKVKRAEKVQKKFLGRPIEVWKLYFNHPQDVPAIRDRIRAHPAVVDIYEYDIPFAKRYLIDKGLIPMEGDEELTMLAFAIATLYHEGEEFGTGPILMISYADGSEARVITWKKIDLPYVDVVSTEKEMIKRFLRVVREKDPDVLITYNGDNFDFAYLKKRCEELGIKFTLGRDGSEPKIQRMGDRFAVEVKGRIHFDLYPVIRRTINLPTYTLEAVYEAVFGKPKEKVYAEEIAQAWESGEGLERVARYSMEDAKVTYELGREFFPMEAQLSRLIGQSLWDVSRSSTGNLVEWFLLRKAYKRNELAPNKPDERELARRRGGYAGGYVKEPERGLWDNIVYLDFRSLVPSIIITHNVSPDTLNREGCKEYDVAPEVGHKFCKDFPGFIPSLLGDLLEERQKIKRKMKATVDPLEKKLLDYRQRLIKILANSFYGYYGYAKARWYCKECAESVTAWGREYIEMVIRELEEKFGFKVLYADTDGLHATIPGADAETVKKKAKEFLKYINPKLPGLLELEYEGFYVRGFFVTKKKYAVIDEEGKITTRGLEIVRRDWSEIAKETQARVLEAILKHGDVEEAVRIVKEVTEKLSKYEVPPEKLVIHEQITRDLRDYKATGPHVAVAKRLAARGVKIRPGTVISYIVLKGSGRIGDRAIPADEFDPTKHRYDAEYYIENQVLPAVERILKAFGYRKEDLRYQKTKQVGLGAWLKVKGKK

[2] = Cleavage of the 3′-O-nitro group with cysteamine-NaOH; type: physicochemical; conditions: aqueous cysteamine-NaOH (pH 9.0), 1.0 to 2.0 M cysteamine, after 5 minutes at 50° C.
Description: 10 to 100 nmol of 3′-O-nitro-thymidine 2 were dissolved in an aqueous solution of cysteamine-NaOH (pH 9.0) to obtain a final nucleoside concentration of 0.17 to 1.7 nmol/μL and a final cysteamine concentration of 1.0 to 2.0 M. Reaction control was performed via analytical reversed-phase chromatography using 0.1 M triethylammonium acetate (pH 7.0)/acetonitrile gradient as eluent.

Question: For `Cc1cn([C@H]2C[C@H](O[N+](=O)[O-])[C@@H](COP(=O)([O-])OP(=O)([O-])OP(=O)([O-])[O-])O2)c(=O)[nH]c1=O.[Na+].[Na+].[Na+].[Na+]` [Compound 3, 3′-O-Nitro-β-D-thymidine 5′-triphosphate, tetrasodium salt], which “acceptance as substrate by Therminator II DNA polymerase” value [1] is on record?
Answer: accepted as substrates

Question: And the “incorporation by Therminator II DNA polymerase” value [1]?
Answer: incorporated efficiently

Question: What about the “primer + dNTP MWfound” value [1] of the same compound?
Answer: 5108.2 DA and 5108.1 DA and 5108.3 DA and 5108.4 DA

Question: With `Cc1cn([C@H]2C[C@H](O[N+](=O)[O-])[C@@H](CO)O2)c(=O)[nH]c1=O` [Compound 2, 3′-O-Nitro-β-D-thymidine] as the compound, how does the “cleavage of the nitrate group” value [2] read?
Answer: Quantitative cleavage
